Experiment: Stability of human ghrelin in 0.1M HCl and Mcllvain buffer solutions of various pH at 25°C (Example 2, HPLC peak area ratio)
Type: physicochemical
Method: Human ghrelin was dissolved in the following aqueous solutions in the concentration of about 0.15 μmol/mL (0.5 mg/mL).
0.1M HCl aqueous solution (pH: 1.1)
The pH was adjusted with 0.1M citric aqueous acid and 0.2M dibasic sodium phosphate aqueous solution.
Each solution were stored at 25±2° C. for 8, 24, 48 and 72 hours respectively, and the obtained solutions were detected by HPLC analysis in comparison to the solutions before storage. […] No significant changes of pH in solution before storage and after storage were observed.

[1] = human ghrelin 0.5 mg/mL in 0.1M HCl aqueous solution, pH 1, 25±2°C, 8 hr. after
[2] = human ghrelin 0.5 mg/mL in 0.1M HCl aqueous solution, pH 1, 25±2°C, 24 hr. after
[3] = human ghrelin 0.5 mg/mL in 0.1M HCl aqueous solution, pH 1, 25±2°C, 48 hr. after
[4] = human ghrelin 0.5 mg/mL in 0.1M HCl aqueous solution, pH 1, 25±2°C, 72 hr. after
[5] = human ghrelin 0.5 mg/mL in 0.1M HCl aqueous solution, pH 1, 25±2°C, before storage
[6] = human ghrelin 0.5 mg/mL in Mcllvain buffer, pH 2, 25±2°C, 8 hr. after
[7] = human ghrelin 0.5 mg/mL in Mcllvain buffer, pH 2, 25±2°C, 24 hr. after
[8] = human ghrelin 0.5 mg/mL in Mcllvain buffer, pH 2, 25±2°C, 48 hr. after
[9] = human ghrelin 0.5 mg/mL in Mcllvain buffer, pH 2, 25±2°C, 72 hr. after
[10] = human ghrelin 0.5 mg/mL in Mcllvain buffer, pH 2, 25±2°C, before storage
[11] = human ghrelin 0.5 mg/mL in Mcllvain buffer, pH 3, 25±2°C, 8 hr. after
[12] = human ghrelin 0.5 mg/mL in Mcllvain buffer, pH 3, 25±2°C, 24 hr. after
[13] = human ghrelin 0.5 mg/mL in Mcllvain buffer, pH 3, 25±2°C, 48 hr. after
[14] = human ghrelin 0.5 mg/mL in Mcllvain buffer, pH 3, 25±2°C, 72 hr. after
[15] = human ghrelin 0.5 mg/mL in Mcllvain buffer, pH 3, 25±2°C, before storage
[16] = human ghrelin 0.5 mg/mL in Mcllvain buffer, pH 4, 25±2°C, 8 hr. after
[17] = human ghrelin 0.5 mg/mL in Mcllvain buffer, pH 4, 25±2°C, 24 hr. after
[18] = human ghrelin 0.5 mg/mL in Mcllvain buffer, pH 4, 25±2°C, 48 hr. after
[19] = human ghrelin 0.5 mg/mL in Mcllvain buffer, pH 4, 25±2°C, 72 hr. after
[20] = human ghrelin 0.5 mg/mL in Mcllvain buffer, pH 4, 25±2°C, before storage
[21] = human ghrelin 0.5 mg/mL in Mcllvain buffer, pH 5, 25±2°C, 8 hr. after
[22] = human ghrelin 0.5 mg/mL in Mcllvain buffer, pH 5, 25±2°C, 24 hr. after
[23] = human ghrelin 0.5 mg/mL in Mcllvain buffer, pH 5, 25±2°C, 48 hr. after
[24] = human ghrelin 0.5 mg/mL in Mcllvain buffer, pH 5, 25±2°C, 72 hr. after
[25] = human ghrelin 0.5 mg/mL in Mcllvain buffer, pH 5, 25±2°C, before storage
[26] = human ghrelin 0.5 mg/mL in Mcllvain buffer, pH 6, 25±2°C, 8 hr. after
[27] = human ghrelin 0.5 mg/mL in Mcllvain buffer, pH 6, 25±2°C, 24 hr. after
[28] = human ghrelin 0.5 mg/mL in Mcllvain buffer, pH 6, 25±2°C, 48 hr. after
[29] = human ghrelin 0.5 mg/mL in Mcllvain buffer, pH 6, 25±2°C, 72 hr. after

Compound: CCCCCCCC(=O)OC[C@H](NC(=O)[C@H](CO)NC(=O)CN)C(=O)N[C@@H](Cc1ccccc1)C(=O)N[C@@H](CC(C)C)C(=O)N[C@@H](CO)C(=O)N1CCC[C@H]1C(=O)N[C@@H](CCC(=O)O)C(=O)N[C@@H](Cc1c[nH]cn1)C(=O)N[C@@H](CCC(N)=O)C(=O)N[C@@H](CCCNC(=N)N)C(=O)N[C@H](C(=O)N[C@@H](CCC(N)=O)C(=O)N[C@@H](CCC(N)=O)C(=O)N[C@@H](CCCNC(=N)N)C(=O)N[C@@H](CCCCN)C(=O)N[C@@H](CCC(=O)O)C(=O)N[C@@H](CO)C(=O)N[C@@H](CCCCN)C(=O)N[C@@H](CCCCN)C(=O)N1CCC[C@H]1C(=O)N1CCC[C@H]1C(=O)N[C@@H](C)C(=O)N[C@@H](CCCCN)C(=O)N[C@@H](CC(C)C)C(=O)N[C@@H](CCC(N)=O)C(=O)N1CCC[C@H]1C(=O)N[C@@H](CCCNC(=N)N)C(=O)O)C(C)C [Human ghrelin]
- Peak area ratio to total peak area [1]: 94.40%
- pH observed [1]: 1.2
- Peak area ratio to total peak area [2]: 86.00%
- pH observed [2]: 1.2
- Peak area ratio to total peak area [3]: 74.62%
- pH observed [3]: 1.2
- Peak area ratio to total peak area [4]: 65.04%
- pH observed [4]: 1.2
- Peak area ratio to total peak area [5]: 98.89%
- pH observed [5]: 1.1
- Peak area ratio to total peak area [6]: 98.82%
- pH observed [6]: 2.0
- Peak area ratio to total peak area [7]: 98.24%
- pH observed [7]: 2.0
- Peak area ratio to total peak area [8]: 97.35%
- pH observed [8]: 2.0
- Peak area ratio to total peak area (human ghrelin 0.5 mg/mL in Mcllvain buffer, pH 2, 25±2°C, 48 hr. after, listed as human ghrelin): less than 98%
- Peak area ratio to total peak area [9]: 96.46%
- pH observed [9]: 2.0
- Peak area ratio to total peak area [10]: 99.07%
- pH observed [10]: 2.0
- Peak area ratio to total peak area [11]: 98.98%
- pH observed [11]: 3.1
- Peak area ratio to total peak area [12]: 98.77%
- pH observed [12]: 3.1
- Peak area ratio to total peak area [13]: 98.40%
- pH observed [13]: 3.1
- Peak area ratio to total peak area [14]: 98.03%
- pH observed [14]: 3.1
- Peak area ratio to total peak area [15]: 99.07%
- pH observed [15]: 3.0
- Peak area ratio to total peak area [16]: 99.07%
- pH observed [16]: 4.0
- Peak area ratio to total peak area [17]: 98.92%
- pH observed [17]: 4.0
- Peak area ratio to total peak area [18]: 98.69%
- pH observed [18]: 4.0
- Peak area ratio to total peak area [19]: 98.44%
- pH observed [19]: 4.0
- Peak area ratio to total peak area [20]: 99.07%
- pH observed [20]: 4.0
- Peak area ratio to total peak area [21]: 99.04%
- pH observed [21]: 5.0
- Peak area ratio to total peak area [22]: 98.91%
- pH observed [22]: 5.0
- Peak area ratio to total peak area [23]: 98.59%
- pH observed [23]: 5.0
- Peak area ratio to total peak area [24]: 98.37%
- pH observed [24]: 5.0
- Peak area ratio to total peak area [25]: 99.06%
- pH observed [25]: 5.0
- Peak area ratio to total peak area [26]: 98.87%
- pH observed [26]: 6.0
- Peak area ratio to total peak area [27]: 98.28%
- pH observed [27]: 6.0
- Peak area ratio to total peak area [28]: 97.64%
- pH observed [28]: 6.0
- Peak area ratio to total peak area (human ghrelin 0.5 mg/mL in Mcllvain buffer, pH 6, 25±2°C, 48 hr. after, listed as human ghrelin): less than 98%
- Peak area ratio to total peak area [29]: 96.92%
- pH observed [29]: 6.0
